The record followed here is ChEMBL document CHEMBL1201862, “PubChem BioAssay data set” (2004).

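Each compound was tested at five concentrations against cells in 96-well plates for 48 hours. The concentration for 50% growth inhibition is given as GI50.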 Activity calls are given as the source filed them. No stated cut-off is given here; in the data, active = GI50 up to about 1.1 µM and inactive = higher.

Holding throughout (test): NCI tumour cell line growth inhibition, 48 h
The test system of assay [1] is Malme-3M.
Assay [2] concerns LOX IMVI.
The test system of assay [3] is OVCAR-8.
The test system of assay [4] is K562.
In assay [5] the test system is UO-31.
The test system of assay [6] is A549.
For assay [7], the system named is EKVX.
Assay [8] concerns SF-295.
Assay [9] concerns U-251.
The test system of assay [10] is HCT-15.
Assay [11] relates to NCI-H522.
Assay [12] concerns HL-60.
The test system of assay [13] is SK-OV-3.
For assay [14], the system named is SK-MEL-2.
The subject of assay [15] is OVCAR-4.
The subject of assay [16] is HT-29.
In assay [17] the test system is NCI-H226.

With `O=C1C=C/C(=N\c2ccc3c(c2)C(Br)c2ccccc2-3)O1` (stereo not given), the GI50 was > 100 µM (inactive) in assay [1]; 45.6 µM (inactive) in [2]; 72.6 µM (inactive) in assay [3]; 42.8 µM (inactive) in [4]; > 100 µM (inactive) in assay [5]; > 100 µM (inactive) in [6]. The GI50 was 52 µM (inactive) in assay [7]; > 100 µM (inactive) in assay [8]; > 100 µM (inactive) in [9]; above 100 µM in assay [10]; 25.9 µM (inactive) in [11]; 10.2 µM (inactive) in assay [12]. For the same compound, the GI50 in assay [13] is > 100 µM (inactive).

Take `NCP(=O)(O)OCC(=O)O`: the GI50 in [1], in [2], in [3], in [4], in assay [5] and in assay [6] was > 100 µM (inactive) each time. For the same compound, the GI50 in assay [7] was > 100 µM (inactive); in assay [14] it was > 100 µM (inactive); in [8], > 100 µM (inactive); in [9], > 100 µM (inactive); in assay [10], above 100 µM; in [11] it was > 100 µM (inactive). The GI50 in assay [12], in assay [15], in [13] and in assay [16] was > 100 µM (inactive) throughout.

Take `COc1ccc(/C=C2\CNC/C(=C\c3ccc(OC)cc3)C2=O)cc1`: the GI50 was > 100 µM (inactive) in [1]; 4.22 µM (inactive) in assay [2]; 16.1 µM (inactive) in [3]; 14.7 µM (inactive) in assay [4]; > 100 µM (inactive) in [5]; > 100 µM (inactive) in [17]. The GI50 in [6] is 59.4 µM (inactive); in assay [7], > 100 µM (inactive); in assay [14], > 100 µM (inactive); in assay [8], 31.1 µM (inactive); in [9], 17.6 µM (inactive); in assay [10], 27.4 µM. In addition, the GI50 in assay [12] was 14 µM (inactive); in assay [15], 76.9 µM (inactive); in assay [13], > 100 µM (inactive); in assay [16] it was 27.2 µM (inactive).

`ON/N=C/c1cc2c(cc1Br)OCO2`: the GI50 in [1], in assay [2], in assay [3], in [4], in [17] and in assay [6] was > 386 µM (inactive) in each case. In addition, the GI50 in assay [7] was 176 µM (inactive); in [14], > 386 µM (inactive); in assay [8], > 386 µM (inactive); in assay [9], 329 µM (inactive); in assay [11] it was 230 µM (inactive); in assay [12], > 386 µM (inactive). Also, the GI50 in assay [13] and in [16] was > 386 µM (inactive) in each case.

For the compound `O=[N+]([O-])c1cc(/C=N\NS(=O)(=O)c2ccc(Cl)cc2)c(O)c([N+](=O)[O-])c1`, the GI50 is 36.6 µM (inactive) in assay [1]; 37.8 µM (inactive) in assay [2]; 23 µM (inactive) in [3]; 31.1 µM (inactive) in [4]; 71.4 µM (inactive) in assay [5]; 37.8 µM (inactive) in assay [6]. The GI50 in assay [7] was > 100 µM (inactive); in assay [14] it was 31.1 µM (inactive); in assay [8], 32.9 µM (inactive); in assay [9], 24 µM (inactive); in [10] it was 21.4 µM; in assay [11] it was 24.5 µM (inactive). The GI50 in assay [12] is 26.7 µM (inactive); in [15], 36.7 µM (inactive); in assay [13] it was 31.3 µM (inactive); in assay [16], 24.9 µM (inactive).

Take `CC(C)(C)C1CCC2c3c([nH]c4ccccc34)C3C(=O)N(c4ccccc4)C(=O)C3C2C1` (stereo not given): the GI50 in assay [1] is 2.4 µM (inactive); in assay [2] it was 3.79 µM (inactive); in [3] it was 4.84 µM (inactive); in assay [4], 4.36 µM (inactive); in assay [5], 2.62 µM (inactive); in assay [17] it was 5.82 µM (inactive). The GI50 in assay [6] is 10.8 µM (inactive); in [7], 14.9 µM (inactive); in assay [8], 4.86 µM (inactive); in [9], 3.1 µM (inactive); in [10], 22.8 µM; in assay [12] it was 12.8 µM (inactive). In addition, the figures for the GI50 in [15], in assay [13] and in assay [16] were 1.86 µM (inactive), 2.15 µM (inactive) and 8.93 µM (inactive), respectively.

Consider `N/C(=N\O)N/N=C/c1cccs1`, for which the GI50 was 55.8 µM (inactive) in [1]; 71.9 µM (inactive) in [3]; 86.9 µM (inactive) in assay [4]; 55.1 µM (inactive) in [5]; 57.1 µM (inactive) in assay [17]; 23.9 µM (inactive) in assay [6]. For the same compound, the GI50 in [7] was 23.7 µM (inactive); in assay [14], 76.7 µM (inactive); in [8], > 100 µM (inactive); in assay [9] it was > 100 µM (inactive); in assay [10] it was 79.1 µM; in [11], 25.1 µM (inactive). Moreover, the GI50 in assay [12] was 28.1 µM (inactive); in assay [15], 34 µM (inactive); in [13], 37.8 µM (inactive); in assay [16] it was 45.1 µM (inactive).

In the case of `O=C(N/C(=C\c1c(O)ccc2ccccc12)c1nc2ccccc2[nH]1)c1ccccc1`, the GI50 in assay [1] was > 100 µM (inactive); in assay [2], > 100 µM (inactive); in assay [3], 54.8 µM (inactive); in [4] it was > 100 µM (inactive); in assay [5] it was 42.6 µM (inactive); in assay [6], > 100 µM (inactive). The GI50 was > 100 µM (inactive) in [7]; > 100 µM (inactive) in [14]; 79.3 µM (inactive) in assay [9]; above 100 µM in [10]; > 100 µM (inactive) in assay [11]; > 100 µM (inactive) in assay [15]. Besides, the GI50 in assay [13] was 86.3 µM (inactive); in assay [16], > 100 µM (inactive).

With `C[C@@]1(CBr)C[C@@](C)(/C=C/Cl)[C@@H](Cl)C[C@H]1Cl`, the GI50 was 16.4 µM (inactive) in assay [1]; 11.5 µM (inactive) in [2]; 13.9 µM (inactive) in assay [3]; 4.74 µM (inactive) in [4]; 15.6 µM (inactive) in [5]; 12.8 µM (inactive) in assay [17]. Further, the GI50 is 12.3 µM (inactive) in [6]; 18.1 µM (inactive) in assay [7]; 2.74 µM (inactive) in [14]; 13.8 µM (inactive) in assay [8]; 14.2 µM (inactive) in assay [9]; 3.31 µM (inactive) in assay [11]. The GI50 is 3.06 µM (inactive) in assay [12], 11.6 µM (inactive) in assay [15], 16 µM (inactive) in assay [13] and 9.04 µM (inactive) in assay [16].

For the compound `CCn1c2c(c3ccccc31)C(c1ccccc1)CC1C(=O)N(c3ccccc3)C(=O)C21` (stereo not given), the GI50 in [1] was 24 µM (inactive); in [2], > 100 µM (inactive); in assay [3], 9.59 µM (inactive); in assay [4] it was 89.5 µM (inactive); in [5], 36.1 µM (inactive); in [17], 31.8 µM (inactive). The GI50 is 21.9 µM (inactive) in assay [6]; 42.8 µM (inactive) in [7]; 61 µM (inactive) in [14]; > 100 µM (inactive) in assay [8]; > 10 µM (inactive) in [9]; above 100 µM in assay [10]. The GI50 was 72.8 µM (inactive) in [11], 68.9 µM (inactive) in assay [12], > 100 µM (inactive) in assay [15] and 24.7 µM (inactive) in assay [13].

Regarding `CN(C(=O)C12C3C4C1C1C2C3C41C#N)C(C)(C)C` (stereo not given), the GI50 in assay [1], in [2], in [3], in assay [4], in assay [5] and in assay [17] was > 100 µM (inactive) in each case. The GI50 in [6], in [7], in assay [14], in assay [8], in [9] and in [11] was > 100 µM (inactive) in each case. Also, the GI50 in [12], in [15], in assay [13] and in assay [16] was > 100 µM (inactive) each time.

Turning to `COc1ccccc1/C=C1\C(=O)N(C(=O)c2ccc(NC(C)=O)cc2)N=C1C`, the GI50 in assay [1], in [2], in assay [3], in assay [4], in assay [5] and in assay [17] was > 100 µM (inactive) in each case. Besides, the GI50 in assay [6] was > 100 µM (inactive); in assay [7], > 100 µM (inactive); in [14] it was > 100 µM (inactive); in [8], > 100 µM (inactive); in assay [9], > 100 µM (inactive); in [10] it was above 100 µM. In addition, the GI50 in assay [11], in assay [12], in assay [15] and in assay [16] was > 100 µM (inactive) each time.

As to `COc1cc(Cn2c3ccccc3c3cc(C)c4c(c32)C=CC(C)(CCC=C(C)C)O4)cc2c1[nH]c1ccccc12` (stereo not given) [CHRESTFOLINE C], the GI50 in assay [1], in [2], in [3], in assay [4], in [5] and in assay [6] was > 100 µM (inactive) throughout. In addition, the GI50 was > 100 µM (inactive) in assay [7]; > 100 µM (inactive) in [14]; > 100 µM (inactive) in [8]; > 100 µM (inactive) in [9]; above 100 µM in assay [10]; > 100 µM (inactive) in assay [11]. For the same compound, the GI50 in assay [12], in assay [15], in assay [13] and in [16] was > 100 µM (inactive) each time.
